Reference: patent US20170368082A1, “FORMULATIONS OF BRINCIDOFOVIR” (priority 2016, published 2017)

Columns and labels:
[1] = Clinical infusion system compatibility; format: physicochemical
Description: The testing procedure can be summarized as follows: • 1. […] The tested infusion system was attached to the infusion bag and manually filled with solution from the infusion bag. Approximately 1 mL (triplicates) of the testing solution was collected as an end-of-line sample for analysis (t0, eol). • 4. The testing infusion system was shut off, and stored at ambient conditions until the next time point. […] B Braun, Rate Flow® regulator IV set). […] The infusion systems were then attached to the infusion bag and manually filled with solution from the infusion bag. Aliquots were collected as an end-of-line sample for analysis (t0, eol). The IV lines were closed between time points with the infusate resting within the infusion system and stored at ambient temperature. At testing time points, approximately 17 mL (approx. volume of the IV system) of infusate solution were drained, which led to a replacement of the solution in the IV system from the bag reservoir. Following this replacement, another end-of-line sample was collected for the assessments (t10 min, eol, t3 h, eol, and t6 h, eol). The samples were evaluated for appearance, pH, and brincidofovir recovery.

rat whole blood = test: Hemolytic potential, cyanmethemoglobin method, rat whole blood; format: cell-based; conditions: for Estimated % Hemolysis: based on normal rat hemoglobin 13 g/dL; for Mean HgB Concentration: interference control, Phase 1
Description: Each concentration of test item for the rat was mixed separately in a 1:4 ratio with rat whole blood while each concentration of test item for the human was mixed separately in a 1:4 ratio with human whole blood. These samples plus control samples [vehicle control (vehicle+whole blood, 1 for rat and 1 for humans), positive control (1% Saponin+whole blood), untreated whole blood control and negative control (saline+whole blood) were analyzed for hemolysis (supernatant hemoglobin concentration).
(§1) The rat and human whole blood samples were incubated in test or control items at 37±1° C. for 20 minutes and then immediately (within 2 minutes) centrifuged at 3500±100 rpm (2740 g) at room temperature for 5-10 minutes. The supernatant was extracted and subjected to a hemoglobin analysis using the cyanmethemoglobin method employed on the Siemens Advia 120 hematology analyzer. If the test item has a potential for causing hemolysis, then hemoglobin released from lysed red blood cells into the plasma supernatant can be quantified via the reaction of heme iron in solution being oxidized from a ferrous to a ferric state in the presence of potassium cyanide. The reaction results in the formation of methemoglobin, which then combines with cyanide to form a stable cyanmethemoglobin. When measured spectrophotometrically at 546 nm the absorbance of cyanmethemoglobin follows Beer's Law and is directly proportional to the concentration of hemoglobin released into solution.
as §1, with “Without wishing to be bound by theory, if” for “If”

[2] = B. Braun, 0.1 mg/mL, t10 min, eol
[3] = B. Braun, 1.0 mg/mL, t10 min, eol
[4] = Baxter, 0.1 mg/mL, t10 min, eol
[5] = Baxter, 1.0 mg/mL, t10 min, eol

CCCCCCCCCCCCCCCCOCCCOP(=O)(O)CO[C@H](CO)Cn1ccc(N)nc1=O [Brincidofovir]
Appearance ([1]; B. Braun, 0.1 mg/mL, t0, bag): Clear, colorless | Measured pH ([1]; B. Braun, 0.1 mg/mL, t0, bag): 7.8 | Observed c(BCV) ([1]; B. Braun, 0.1 mg/mL, t0, bag): 0.091 mg/mL | Appearance ([1]; B. Braun, 0.1 mg/mL, t0, eol): Clear, colorless | Measured pH ([1]; B. Braun, 0.1 mg/mL, t0, eol): 7.7 | Observed c(BCV) ([1]; B. Braun, 0.1 mg/mL, t0, eol): 0.086 mg/mL | Appearance [1, 2]: Clear, colorless | Measured pH [1, 2]: 7.7 | Observed c(BCV) [1, 2]: 0.091 mg/mL | Appearance ([1]; B. Braun, 0.1 mg/mL, t3 h, eol): Clear, colorless | Measured pH ([1]; B. Braun, 0.1 mg/mL, t3 h, eol): 7.7 | Observed c(BCV) ([1]; B. Braun, 0.1 mg/mL, t3 h, eol): 0.090 mg/mL | Appearance ([1]; B. Braun, 0.1 mg/mL, t6 h, eol): Clear, colorless | Measured pH ([1]; B. Braun, 0.1 mg/mL, t6 h, eol): 7.7 | Observed c(BCV) ([1]; B. Braun, 0.1 mg/mL, t6 h, eol): 0.091 mg/mL | Observed c(BCV) ([1]; B. Braun, 0.1 mg/mL, t−24 h, bag): 0.090 mg/mL | Appearance ([1]; B. Braun, 1.0 mg/mL, t0, bag): Clear, colorless | Measured pH ([1]; B. Braun, 1.0 mg/mL, t0, bag): 8.1 | Observed c(BCV) ([1]; B. Braun, 1.0 mg/mL, t0, bag): 0.86 mg/mL | Appearance ([1]; B. Braun, 1.0 mg/mL, t0, eol): Clear, colorless | Measured pH ([1]; B. Braun, 1.0 mg/mL, t0, eol): 8.1 | Observed c(BCV) ([1]; B. Braun, 1.0 mg/mL, t0, eol): 0.86 mg/mL | Appearance [1, 3]: Clear, colorless | Measured pH [1, 3]: 8.1 | Observed c(BCV) [1, 3]: 0.86 mg/mL | Appearance ([1]; B. Braun, 1.0 mg/mL, t3 h, eol): Clear, colorless | Measured pH ([1]; B. Braun, 1.0 mg/mL, t3 h, eol): 8.1 | Observed c(BCV) ([1]; B. Braun, 1.0 mg/mL, t3 h, eol): 0.86 mg/mL | Appearance ([1]; B. Braun, 1.0 mg/mL, t6 h, eol): Clear, colorless | Measured pH ([1]; B. Braun, 1.0 mg/mL, t6 h, eol): 8.1 | Observed c(BCV) ([1]; B. Braun, 1.0 mg/mL, t6 h, eol): 0.86 mg/mL | Observed c(BCV) ([1]; B. Braun, 1.0 mg/mL, t−24 h, bag): 0.86 mg/mL | Appearance ([1]; Baxter, 0.1 mg/mL, t0, bag): Clear, colorless | Measured pH ([1]; Baxter, 0.1 mg/mL, t0, bag): 7.7 | Observed c(BCV) ([1]; Baxter, 0.1 mg/mL, t0, bag): 0.091 mg/mL | Appearance ([1]; Baxter, 0.1 mg/mL, t0, eol): Clear, colorless | Measured pH ([1]; Baxter, 0.1 mg/mL, t0, eol): 7.7 | Observed c(BCV) ([1]; Baxter, 0.1 mg/mL, t0, eol): 0.088 mg/mL | Appearance [1, 4]: Clear, colorless | Measured pH [1, 4]: 7.7 | Observed c(BCV) [1, 4]: 0.092 mg/mL | Appearance ([1]; Baxter, 0.1 mg/mL, t3 h, eol): Clear, colorless | Measured pH ([1]; Baxter, 0.1 mg/mL, t3 h, eol): 7.7 | Observed c(BCV) ([1]; Baxter, 0.1 mg/mL, t3 h, eol): 0.091 mg/mL | Appearance ([1]; Baxter, 0.1 mg/mL, t6 h, eol): Clear, colorless | Measured pH ([1]; Baxter, 0.1 mg/mL, t6 h, eol): 7.7 | Observed c(BCV) ([1]; Baxter, 0.1 mg/mL, t6 h, eol): 0.092 mg/mL | Observed c(BCV) ([1]; Baxter, 0.1 mg/mL, t−24 h, bag): 0.090 mg/mL | Appearance ([1]; Baxter, 1.0 mg/mL, t0, bag): Clear, colorless | Measured pH ([1]; Baxter, 1.0 mg/mL, t0, bag): 8.1 | Observed c(BCV) ([1]; Baxter, 1.0 mg/mL, t0, bag): 0.86 mg/mL | Appearance ([1]; Baxter, 1.0 mg/mL, t0, eol): Clear, colorless | Measured pH ([1]; Baxter, 1.0 mg/mL, t0, eol): 8.1 | Observed c(BCV) ([1]; Baxter, 1.0 mg/mL, t0, eol): 0.85 mg/mL | Appearance [1, 5]: Clear, colorless | Measured pH [1, 5]: 8.1 | Observed c(BCV) [1, 5]: 0.86 mg/mL | Appearance ([1]; Baxter, 1.0 mg/mL, t3 h, eol): Clear, colorless | Measured pH ([1]; Baxter, 1.0 mg/mL, t3 h, eol): 8.1 | Observed c(BCV) ([1]; Baxter, 1.0 mg/mL, t3 h, eol): 0.86 mg/mL | Appearance ([1]; Baxter, 1.0 mg/mL, t6 h, eol): Clear, colorless | Measured pH ([1]; Baxter, 1.0 mg/mL, t6 h, eol): 8.1 | Observed c(BCV) ([1]; Baxter, 1.0 mg/mL, t6 h, eol): 0.86 mg/mL | Observed c(BCV) ([1]; Baxter, 1.0 mg/mL, t−24 h, bag): 0.85 mg/mL | Brincidofovir concentration with in vitro evidence of hemolysis (rat whole blood): above 0.75 mg/mL | Hemolysis classification (rat whole blood; 0.2 mg/mL): non-hemolytic (Formulations with a hemolysis value of <10% are considered to be non-hemolytic) | Calculated % hemolysis (rat whole blood; 0.5 mg/mL ([…])): 2.4% | Calculated % hemolysis (rat whole blood; 1.6 mg/mL ([…])): 13.0% | Hemolysis classification (rat whole blood; 0.5 and 1.6 mg/mL): not considered a hemolytic risk | Estimated % Hemolysis (rat whole blood; Tube 1B: Test Item (0.5 mg/mL) + rat whole blood): 2.4% | Estimated % Hemolysis (rat whole blood; Tube 1C: Test Item (1.6 mg/mL) + rat whole blood): 13.0% | Mean HgB Concentration (rat whole blood; Tube 2A: Test Item (0.2 mg/mL) + saline): 0.0 g/dL | Mean HgB Concentration (rat whole blood; Tube 2B: Test Item (0.5 mg/mL) + saline): 0.0 g/dL | Mean HgB Concentration (rat whole blood; Tube 2C: Test Item (1.6 mg/mL) + saline): 0.0 g/dL
